Measurements from patent US20070105890A1, “Novel condensed imidazole derivative” (DAINIPPON SUMITOMO PHARMA CO., LTD, priority 2003, published 2007).
Counter-ions that a name gives are not always drawn.

Each compound was assayed against T1, DPP-IV enzyme (Bos taurus, UniProt P81425) (assay: In Vitro DPP-IV Inhibitory Effect Measurement Test (1), bovine plasma). Settings: substrate Glycyl-L-Proline 4-Methyl-Coumaryl-7-Amide, Table 1.
T1 construct: Bovine plasma containing DPP-IV enzyme was diluted with assay buffer; from tissue; host or cells: bovine plasma
Assay type: biochemical
Method: In Vitro DPP-IV Inhibitory Effect Measurement Test (1)
Bovine plasma containing DPP-IV enzyme was diluted with assay buffer (25 mM Tris-HCl, 140 mM NaCl, 10 mM KCl, pH=7.9) and 50 μL of the dilution was added to a micro assay plate. After 1 μL of a solution of each compound was added, mixing was conducted, followed by incubation at room temperature. A substrate (Glycyl-L-Proline 4-Methyl-Coumaryl-7-Amide, Peptide Laboratories Co., Ltd.) was diluted to 0.2 mM with the assay buffer, and 50 μL of this solution was added and then stirred, followed by incubation at room temperature. Thereafter, the reaction was terminated by the addition of 100 μL of a 25% aqueous acetic acid solution. The intensity of fluorescence at an excitation wavelength of 360 nm and a measuring wavelength of 460 nm was measured by the use of a fluorescent plate reader. The difference in intensity of fluorescence between a background well in which the reaction had been terminated by previously adding a 25% aqueous acetic acid solution before the addition of the substrate solution and a control well to which no compound had been added was taken as 100%. The intensity of fluorescence of a well containing the compound was interpolated and the residual enzyme activity in the case of the addition of the compound was calculated as a relative value.
(§1) Compounds of Examples were used in this test.

T1 sequence (P81425 38-765 limits assumed): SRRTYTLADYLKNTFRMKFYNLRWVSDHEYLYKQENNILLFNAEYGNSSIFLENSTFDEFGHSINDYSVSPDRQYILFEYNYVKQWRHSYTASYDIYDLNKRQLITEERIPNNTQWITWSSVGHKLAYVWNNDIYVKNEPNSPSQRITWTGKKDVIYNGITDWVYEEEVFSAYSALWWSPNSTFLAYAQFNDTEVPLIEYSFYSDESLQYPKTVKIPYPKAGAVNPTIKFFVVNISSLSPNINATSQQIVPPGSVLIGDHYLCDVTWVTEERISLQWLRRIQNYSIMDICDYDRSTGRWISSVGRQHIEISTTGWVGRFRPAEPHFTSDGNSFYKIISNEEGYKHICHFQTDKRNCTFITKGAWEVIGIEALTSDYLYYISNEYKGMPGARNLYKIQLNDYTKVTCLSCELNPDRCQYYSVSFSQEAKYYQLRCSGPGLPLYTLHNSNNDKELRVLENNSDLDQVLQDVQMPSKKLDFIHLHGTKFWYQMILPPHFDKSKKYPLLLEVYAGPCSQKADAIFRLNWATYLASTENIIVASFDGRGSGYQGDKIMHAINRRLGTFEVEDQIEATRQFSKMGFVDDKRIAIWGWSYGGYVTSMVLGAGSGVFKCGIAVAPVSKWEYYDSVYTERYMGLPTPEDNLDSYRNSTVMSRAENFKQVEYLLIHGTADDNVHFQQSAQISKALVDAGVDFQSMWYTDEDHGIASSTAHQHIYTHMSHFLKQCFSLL

Point of comparison: `N[C@@H]1CCCN(c2nc3ccn(-c4cccc(F)c4)c(=O)c3n2Cc2ccccc2Cl)C1` [Example 30], IC50 203 nM. Against it:
- Cn1ccc2nc(N3CCC[C@@H](N)C3)n(Cc3cc(F)ccc3Cl)c2c1=O [Example 11] — 4.6-fold lower, 44 nM
- COc1cccc(CC(=O)c2cc3nc(N4CCC[C@@H](N)C4)n(Cc4ccccc4Cl)c3c(=O)n2C)c1 [Example 38] — 1.8-fold lower, 112 nM
- Cn1ccc2nc(N3CCC[C@@H](N)C3)n(Cc3ccccc3Cl)c2c1=O [Example 4, 2-[(3R)-3-Aminopiperidin-1-yl]-3-(2-chlorobenzyl)-5-methyl-3,5-dihydro-4H-imidazo[4,5-c]pyridin-4-one] — 3-fold lower, 68 nM
- N[C@@H]1CCCN(c2nc3ccn(CC(=O)c4ccccc4)c(=O)c3n2Cc2ccccc2Cl)C1 [Example 7] — 140-fold lower, 1.4 nM
- Cn1c(C#N)cc2nc(N3CCC[C@@H](N)C3)n(Cc3ccccc3Cl)c2c1=O [Example 2, 2-[(3R)-3-Aminopiperidin-1-yl]-3-(2-chlorobenzyl)-5-methyl-4-oxo-4,5-dihydro-3H-imidazo[4,5-c]pyridine-6-carbonitrile hydrochloride] — 18-fold lower, 11 nM
- N[C@@H]1CCCN(c2nc3cc(C(=O)O)[nH]c(=O)c3n2Cc2ccccc2Cl)C1 [Example 13] — 41-fold lower, 5 nM

What follows are compounds tested against T2, DPP-IV enzyme (Homo sapiens, UniProt P27487) (assay: In Vitro DPP-IV Inhibitory Effect Measurement Test (2), human serum). Settings: DPP-IV in human serum (diluted 10-fold); substrate Glycyl-L-Proline 4-Methyl-Coumaryl-7-Amide 100 μM; Table 2.
T2 construct: Human serum containing DPP-IV enzyme was used in an experiment after being diluted with assay buffer; from tissue; host or cells: human serum
Assay type: biochemical
Method: In Vitro DPP-IV Inhibitory Effect Measurement Test (2)
Human serum containing DPP-IV enzyme was used in an experiment after being diluted with assay buffer (25 mM Tris-HCl, 140 mM NaCl, 10 mM KCl, pH 7.9) (finally, diluted 10-fold). Each of solutions of each test compound having various concentrations was added to the diluted serum and the resulting mixture was incubated at room temperature. Then, a substrate (Glycyl-L-Proline 4-Methyl-Coumaryl-7-Amide, Peptide Laboratories Co., Ltd.) was added thereto to a final concentration of 100 μM and the reaction was carried out at room temperature.
as §1

T2 sequence (P27487 39-766 limits assumed): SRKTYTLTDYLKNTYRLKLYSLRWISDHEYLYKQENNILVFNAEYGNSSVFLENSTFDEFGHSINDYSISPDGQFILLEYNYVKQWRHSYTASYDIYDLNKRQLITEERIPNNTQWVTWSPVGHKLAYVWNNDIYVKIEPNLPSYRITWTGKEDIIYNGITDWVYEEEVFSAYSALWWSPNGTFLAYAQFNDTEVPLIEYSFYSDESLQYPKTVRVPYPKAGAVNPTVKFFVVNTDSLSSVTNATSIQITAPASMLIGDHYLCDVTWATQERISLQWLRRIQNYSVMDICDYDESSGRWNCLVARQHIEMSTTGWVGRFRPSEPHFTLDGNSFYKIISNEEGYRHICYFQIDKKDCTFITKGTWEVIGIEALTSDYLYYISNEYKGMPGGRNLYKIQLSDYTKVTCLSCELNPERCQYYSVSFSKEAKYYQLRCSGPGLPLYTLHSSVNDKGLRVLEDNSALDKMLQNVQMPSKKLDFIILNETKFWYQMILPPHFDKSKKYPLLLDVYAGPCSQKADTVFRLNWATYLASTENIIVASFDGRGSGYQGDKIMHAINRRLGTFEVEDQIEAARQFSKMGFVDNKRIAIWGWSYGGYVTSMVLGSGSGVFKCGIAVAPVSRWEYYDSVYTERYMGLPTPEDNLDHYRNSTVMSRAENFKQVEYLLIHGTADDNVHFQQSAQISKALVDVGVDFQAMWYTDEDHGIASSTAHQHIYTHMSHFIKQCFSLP

Point of comparison: `Cn1c(=O)c2c(nc(N3CCC[C@@H](N)C3)n2Cc2ccccc2Cl)c2c(C(=O)O)c(F)ccc21` [Example 97, 2-[(3R)-3-aminopiperidin-1-yl]-3-(2-chlorobenzyl)-8-fluoro-5-methyl-4-oxo-4,5-dihydro-3H-imidazo[4,5-c]quinoline-9-carboxylic acid hydrochloride], IC50 14 nM. Against it:
- Cn1c(=O)c2c(nc(N3CCC[C@@H](N)C3)n2Cc2ccccc2Cl)c2cc3c(cc21)C(=O)OC3 [Example 90, 2-[(3R)-3-Aminopiperidin-1-yl]-3-(2-chlorobenzyl)-5-methyl-5,9-dihydro-3H-furo[3,4-g]imidazo[4,5-c]quinoline-4,7-dione hydrochloride] — within 1.5-fold, 11 nM
- Cn1c(=O)c2c(nc(N3CCC[C@@H](N)C3)n2Cc2ccccc2Cl)c2csc(C(=O)O)c21 [Example 102, 2-[(3R)-3-Aminopiperidin-1-yl]-3-(2-chlorobenzyl)-5-methyl-4-oxo-4,5-dihydro-3H-imidazo[4,5-d]thieno[3,4-b]pyridine-6-carboxylic acid hydrochloride] — within 1.5-fold, 12 nM
- COC(=O)c1c2c(nn1Cc1ccc(OC)cc1)c1nc(N3CCC[C@@H](N)C3)n(Cc3ccccc3Cl)c1c(=O)n2C [Example 94, Methyl 7-[(3R)-3-aminopiperidin-1-yl]-6-(2-chlorobenzyl)-2-(4-methoxybenzyl)-4-methyl-5-oxo-2,4,5,6-tetrahydroimidazo[4,5-d]pyrazolo[4,3-b]pyridine-3-carboxylate hydrochloride] — 3-fold higher, 42 nM
- N[C@@H]1CCCN(c2nc3c4cc(C(=O)O)ccc4[nH]c(=O)c3n2Cc2ccccc2Cl)C1 [Example 48, 2-{(3R)-3-Aminopiperidin-1-yl}-3-(2-chlorobenzyl)-4-oxo-4,5-dihydro-3H-imidazo[4,5-c]quinoline-8-carboxylic acid hydrochloride] — 3.2-fold higher, 45 nM
